In ChEMBL document CHEMBL4665869, “New thiazolopyrimidine as anticancer agents: Synthesis, biological evaluation, DNA binding, molecular modeling and ADMET study” (Bioorg Med Chem Lett, 2020):
In brackets after ≈: the same amount, converted by molar mass. Activity calls are given as the source filed them. No cut-off for these calls is given here.

Legend:
LOX IMVI = assay: Growth inhibition of human LOX IMVI cells at 10 uM relative to control; type: functional; conditions: read-out: GI
MDA-MB-468 = assay: Growth inhibition of human MDA-MB-468 cells at 10 uM relative to control; type: functional
T47D = assay: Growth inhibition of human T47D cells at 10 uM relative to control; type: functional
CCRF-CEM = assay: Growth inhibition of human CCRF-CEM cells at 10 uM relative to control; type: functional
HL-60(TB) = assay: Growth inhibition of human HL-60(TB) cells at 10 uM relative to control; type: functional
K562 = assay: Growth inhibition of human K562 cells at 10 uM relative to control; type: functional; conditions: read-out: GI
MOLT-4 = assay: Growth inhibition of human MOLT-4 cells at 10 uM relative to control; type: functional
RPMI-8226 = assay: Growth inhibition of human RPMI-8226 cells at 10 uM relative to control; type: functional
SR = assay: Growth inhibition of human SR cells at 10 uM relative to control; type: functional
A549 = assay: Growth inhibition of human A549 cells at 10 uM relative to control; type: functional
HOP-62 = assay: Growth inhibition of human HOP-62 cells at 10 uM relative to control; type: functional; conditions: read-out: GI
HOP-92 = assay: Growth inhibition of human HOP-92 cells at 10 uM relative to control; type: functional
NCI-H226 = assay: Growth inhibition of human NCI-H226 cells at 10 uM relative to control; type: functional
NCI-H23 = assay: Growth inhibition of human NCI-H23 cells at 10 uM relative to control; type: functional; conditions: read-out: GI
NCI-H322M = assay: Growth inhibition of human NCI-H322M cells at 10 uM relative to control; type: functional; conditions: read-out: GI
NCI-H460 = assay: Growth inhibition of human NCI-H460 cells at 10 uM relative to control; type: functional; conditions: read-out: GI
NCI-H522 = assay: Growth inhibition of human NCI-H522 cells at 10 uM relative to control; type: functional
SW-620 = assay: Growth inhibition of human SW-620 cells at 10 uM relative to control; type: functional; conditions: read-out: GI
COLO 205 = assay: Growth inhibition of human COLO 205 cells at 10 uM relative to control; type: functional
HCC 2998 = assay: Growth inhibition of human HCC 2998 cells at 10 uM relative to control; type: functional
HCT-116 = assay: Growth inhibition of human HCT-116 cells at 10 uM relative to control; type: functional; conditions: read-out: GI
HCT-15 = assay: Growth inhibition of human HCT-15 cells at 10 uM relative to control; type: functional; conditions: read-out: GI
HT-29 = assay: Growth inhibition of human HT-29 cells at 10 uM relative to control; type: functional; conditions: read-out: GI
KM12 = assay: Growth inhibition of human KM12 cells at 10 uM relative to control; type: functional; conditions: read-out: GI
SF-268 = assay: Growth inhibition of human SF-268 cells at 10 uM relative to control; type: functional
SF-295 = assay: Growth inhibition of human SF-295 cells at 10 uM relative to control; type: functional
SF-539 = assay: Growth inhibition of human SF-539 cells at 10 uM relative to control; type: functional
SNB-19 = assay: Growth inhibition of human SNB-19 cells at 10 uM relative to control; type: functional
SNB-75 = assay: Growth inhibition of human SNB-75 cells at 10 uM relative to control; type: functional
U-251 = assay: Growth inhibition of human U-251 cells at 10 uM relative to control; type: functional; conditions: read-out: GI
Malme-3M = assay: Growth inhibition of human Malme-3M cells at 10 uM relative to control; type: functional
M14 = assay: Growth inhibition of human M14 cells at 10 uM relative to control; type: functional
MDA-MB-435 = assay: Growth inhibition of human MDA-MB-435 cells at 10 uM relative to control; type: functional
SK-MEL-2 = assay: Growth inhibition of human SK-MEL-2 cells at 10 uM relative to control; type: functional
SK-MEL-28 = assay: Growth inhibition of human SK-MEL-28 cells at 10 uM relative to control; type: functional
SK-MEL-5 = assay: Growth inhibition of human SK-MEL-5 cells at 10 uM relative to control; type: functional
UACC-257 = assay: Growth inhibition of human UACC-257 cells at 10 uM relative to control; type: functional; conditions: read-out: GI
UACC-62 = assay: Growth inhibition of human UACC-62 cells at 10 uM relative to control; type: functional
IGROV-1 = assay: Growth inhibition of human IGROV-1 cells at 10 uM relative to control; type: functional
OVCAR-4 = assay: Growth inhibition of human OVCAR-4 cells at 10 uM relative to control; type: functional; conditions: read-out: GI
OVCAR-5 = assay: Growth inhibition of human OVCAR-5 cells at 10 uM relative to control; type: functional
OVCAR-8 = assay: Growth inhibition of human OVCAR-8 cells at 10 uM relative to control; type: functional
NCI/ADR-RES = assay: Growth inhibition of human NCI/ADR-RES cells at 10 uM relative to control; type: functional; conditions: read-out: GI
SK-OV-3 = assay: Growth inhibition of human SK-OV-3 cells at 10 uM relative to control; type: functional; conditions: read-out: GI
786-0 = assay: Growth inhibition of human 786-0 cells at 10 uM relative to control; type: functional; conditions: read-out: GI
A498 = assay: Growth inhibition of human A498 cells at 10 uM relative to control; type: functional
ACHN = assay: Growth inhibition of human ACHN cells at 10 uM relative to control; type: functional
CAKI-1 = assay: Growth inhibition of human CAKI-1 cells at 10 uM relative to control; type: functional
RXF 393 = assay: Growth inhibition of human RXF 393 cells at 10 uM relative to control; type: functional
SN12C = assay: Growth inhibition of human SN12C cells at 10 uM relative to control; type: functional; conditions: read-out: GI
TK-10 = assay: Growth inhibition of human TK-10 cells at 10 uM relative to control; type: functional; conditions: read-out: GI
UO-31 = assay: Growth inhibition of human UO-31 cells at 10 uM relative to control; type: functional; conditions: read-out: GI
PC-3 = assay: Growth inhibition of human PC-3 cells at 10 uM relative to control; type: functional; conditions: read-out: GI
DU-145 = assay: Growth inhibition of human DU-145 cells at 10 uM relative to control; type: functional; conditions: read-out: GI
MCF7 = assay: Growth inhibition of human MCF7 cells at 10 uM relative to control; type: functional; conditions: read-out: GI
MDA-MB-231 = assay: Growth inhibition of human MDA-MB-231 cells at 10 uM relative to control; type: functional; conditions: read-out: GI
Hs-578T = assay: Growth inhibition of human Hs-578T cells at 10 uM relative to control; type: functional
BT-549 = assay: Growth inhibition of human BT-549 cells at 10 uM relative to control; type: functional
DNA = assay: Displacement of methyl green from DNA (unknown origin) assessed as DNA intercalation after 24 hrs by colorimetric assay; type: nucleic-acid assay
[1] = test system: Panel NCI-60 (60 carcinoma cell lines); assay: Growth inhibition of human NCI60 cells; type: functional

## COc1cccc2c1C(=O)c1c(O)c3c(c(O)c1C2=O)C[C@@](O)(C(=O)CO)C[C@@H]3O[C@H]1C[C@H](N)[C@H](O)[C@H](C)O1 [DOXORUBICIN]
LOX IMVI
  inhibition of growth at 10 µM: 94.3%
MDA-MB-468
  growth inhibition (GI): Active
T47D
  growth inhibition (GI): Active
CCRF-CEM
  growth inhibition (GI): Active
HL-60(TB)
  growth inhibition (GI): Active
K562
  inhibition of growth at 10 µM: 97.9%
MOLT-4
  growth inhibition (GI): Active
RPMI-8226
  growth inhibition (GI): Active
SR
  growth inhibition (GI): Active
A549
  growth inhibition (GI): Active
HOP-62
  inhibition of growth at 10 µM: 93.1%
HOP-92
  growth inhibition (GI): Active
NCI-H226
  growth inhibition (GI): Active
NCI-H23
  inhibition of growth at 10 µM: 66.7%
NCI-H322M
  inhibition of growth at 10 µM: 86.1%
NCI-H460
  inhibition of growth at 10 µM: 99.4%
NCI-H522
  growth inhibition (GI): Active
SW-620
  inhibition of growth at 10 µM: 98.1%
COLO 205
  growth inhibition (GI): Active
HCC 2998
  growth inhibition (GI): Active
HCT-116
  inhibition of growth at 10 µM: 97.2%
HCT-15
  inhibition of growth at 10 µM: 84.8%
HT-29
  inhibition of growth at 10 µM: 95.3%
KM12
  inhibition of growth at 10 µM: 95.8%
SF-268
  growth inhibition (GI): Active
SF-295
  growth inhibition (GI): Active
SF-539
  growth inhibition (GI): Active
SNB-19
  growth inhibition (GI): Active
SNB-75
  growth inhibition (GI): Active
U-251
  inhibition of growth at 10 µM: 90.8%
Malme-3M
  growth inhibition (GI): Active
M14
  growth inhibition (GI): Active
MDA-MB-435
  growth inhibition (GI): Active
SK-MEL-2
  growth inhibition (GI): Active
SK-MEL-28
  growth inhibition (GI): Active
SK-MEL-5
  growth inhibition (GI): Active
UACC-257
  inhibition of growth at 10 µM: 96.5%
UACC-62
  growth inhibition (GI): Active
IGROV-1
  growth inhibition (GI): Active
OVCAR-4
  inhibition of growth at 10 µM: 85.9%
OVCAR-5
  growth inhibition (GI): Active
OVCAR-8
  growth inhibition (GI): Active
NCI/ADR-RES
  inhibition of growth at 10 µM: 95.1%
SK-OV-3
  inhibition of growth at 10 µM: 86.2%
786-0
  inhibition of growth at 10 µM: 95.5%
A498
  growth inhibition (GI): Active
ACHN
  growth inhibition (GI): Active
CAKI-1
  growth inhibition (GI): Active
RXF 393
  growth inhibition (GI): Active
SN12C
  inhibition of growth at 10 µM: 88%
TK-10
  inhibition of growth at 10 µM: 74.6%
UO-31
  inhibition of growth at 10 µM: 96%
PC-3
  inhibition of growth at 10 µM: 98.7%
DU-145
  inhibition of growth at 10 µM: 86.8%
MCF7
  inhibition of growth at 10 µM: 96.6%
MDA-MB-231
  inhibition of growth at 10 µM: 96.2%
Hs-578T
  growth inhibition (GI): Active
BT-549
  growth inhibition (GI): Active
DNA
  IC50: 31.27 µg/mL (≈ 57.5 µM)
[1]
  GI50: 150 nM
  TGI: 2480 nM
